Measured values: patent US9562057B2, “(Thieno[2,3-b][1,5]benzoxazepin-4-yl)piperazin-1-yl compounds as dual activity H1 inverse agonists/5-HT2A antagonists” (Eli Lilly and Company, priority 2013, dated 2017)
Where a name gives a salt, the structure may show the parent alone.

Assay: Plasma clearance
Type: in vivo
Conditions: dog, 1 mg/kg, male Beagle dogs, intravenous, 1 mL/kg of 1.0 mg/mL (free base equivalents)
Description: Male Beagle dogs (body weight range 10-12 kg) are obtained from Marshall Bioresources, USA. Test compound is administered intravenously in solution (1 mL/kg) in 20% Captisol® in 22.5 mM phosphate buffer, pH 2, at a final drug concentration of 1.0 mg/mL (free base equivalents). Blood samples are obtained from the jugular vein over 24 hr. Samples of plasma are obtained by centrifugation and stored frozen (−20° C.) prior to analysis.
Frozen plasma samples are thawed to room temperature for bioanalysis of concentrations of test compound. A related internal standard compound in acetonitrile/methanol (1:1, v/v) is added to all samples of plasma (1:1, v/v). The samples are centrifuged to remove precipitated protein prior to analysis. The supernatants are analysed by injection and rapid gradient elution on a Javelin Betasil C18 column (20×2.1 mm cartridge, Mobile phase A: Water/1 M NH4HCO3, 2000:10 v/v, Mobile Phase B: MeOH/1 M NH4HCO3, 2000:10 v/v). The eluted analytes are detected by LC-MS-MS analysis using a Sciex API 4000 triple quadrupole mass spectrometer. Concentrations of compound are determined from standards prepared and analysed under identical conditions. Clearance is calculated using non-compartmental analysis in Watson 7.4, Thermo Fisher Scientific, Inc.

SMILES: Cc1ccc2c(c1)Oc1sc(C3CC3)cc1C(N1CCN(CC(C)(C)C(=O)O)CC1)=N2 [Example 2, 3-[4-(2-Cyclopropyl-8-methyl-thieno[2,3-b][1,5]benzoxazepin-4-yl)piperazin-1-yl]-2,2-dimethyl-propanoic acid dihydrochloride]
- clearance: 6.06 mL/min/kg
